Measured values reported in patent US10772917B2, “Pancreatic endocrine progenitor cell therapies for the treatment of obesity and type 2 diabetes (T2D)” (THE UNIVERSITY OF BRITISH COLUMBIA, priority 2015, dated 2020).

Assays:
[1] = system: HFD-fed mice; test: Body weight, epididymal fat pad weight and leptin in 60% fat diet mice given antidiabetic drug with or without cell transplant (Example 6); assay type: in vivo, mouse (SCID-beige); conditions: for circulating leptin levels: 60% fat diet, drug combined with cell transplant vs respective sham controls on the same drug, 20 weeks post-transplant
Text: Male SCID-beige mice (C.B-Igh-1b/GbmsTac-Prkdcscid-LystbgN7, 8-10 weeks old; Taconic™) were maintained on a 12 hr light/dark cycle throughout the study. All experiments were approved by the UBC Animal Care Committee and carried out in accordance with the Canadian Council on Animal Care guidelines.
(§1) In the second cohort, mice were placed on either the 10% fat control diet (D12450K; n=8) for the duration of the study of 60% fat diet (D12492; n=64) for 6 weeks, followed by one of the following treatment regimens for the remainder of the study (n=16 per group): (1) 60% fat diet with no drug (D12492), (2) 60% fat diet containing rosiglitazone (18 mg/kg diet or ˜3 mg/kg BW per day; Cayman Chemical™; Research Diets™ custom diet formulation D08121002), (3) 60% fat diet containing sitagliptin (4 g/kg diet or ˜750 mg/kg BW per day; sitagliptin phosphate monohydrate, BioVision™; Research Diets™ custom diet formulation D08062502R), or (4) 60% fat diet (D12492) and metformin (1,1-dimethylbiguanide hydrochloride) in drinking water (1.25 mg/ml or ˜250 mg/kg BW per day).
The procedure used for transplantation of macro-encapsulated pancreatic progenitor cells was as follows. Similar transplantation of macro-encapsulated pancreatic endocrine precursor cells or insulin-producing cells was described in Rezania et al. 2014, Pagliucca et al. 2014 and Agulnick A. D. et al. 2015. All mice were anaesthetized with inhalable isoflurane and transplant recipients received ˜5×10^6 hESC-derived pancreatic progenitor cells subcutaneously (s.c.) within a 20 1 TheraCyte™ macroencapsulation device (TheraCyte Inc.™, Laguna Hills, Calif.) on the right flank, as previously described (Bruin et al., 2013). Sham mice received the same surgical procedure, but no macroencapsulation device was implanted. In the first cohort, mice were randomly assigned to receive either a cell transplant (Tx, n=7 per diet) or sham surgery (sham, n=4 per diet) after 7 weeks of LFD or HFD feeding. […]
All metabolic analyses were performed in conscious, restrained mice and blood samples were collected via the saphenous vein. BW and blood glucose levels were assessed regularly throughout each study following a 4-hr morning fast. […]
Glucose tolerance tests (GTTs) were performed following a 6-hour morning fast and administration of glucose by oral gavage or intraperitoneal (i.p.) injection (2 glucose/kg BW, 30% solution; Vétoquinol™, Lavaltrie, QC). Glucose-stimulated human C-peptide secretion from engrafted cells was assessed following an overnight fast and an i.p. injection of glucose (2 g/kg). […] Blood glucose levels were measured using a handheld glucometer (Lifescan™; Burnaby, Canada). […]

[2] = system: HFD-fed mice; test: Mouse and human C-peptide after intraperitoneal glucose challenge (Example 6); assay type: in vivo, mouse (SCID-beige); conditions: drug plus cell transplant vs respective sham controls; for reduction of fasting mouse C-peptide levels: 4 weeks post-transplant; for fasting mouse C-peptide levels: 16 weeks post-transplant
Text: (§2) The procedure used for transplantation of macro-encapsulated pancreatic progenitor cells was as follows. Similar transplantation of macro-encapsulated pancreatic endocrine precursor cells or insulin-producing cells was described in Rezania et al. 2014, Pagliucca et al. 2014 and Agulnick A. D. et al. 2015. All mice were anaesthetized with inhalable isoflurane and transplant recipients received ˜5×10^6 hESC-derived pancreatic progenitor cells subcutaneously (s.c.) within a 20 1 TheraCyte™ macroencapsulation device (TheraCyte Inc.™, Laguna Hills, Calif.) on the right flank, as previously described (Bruin et al., 2013). Sham mice received the same surgical procedure, but no macroencapsulation device was implanted. In the first cohort, mice were randomly assigned to receive either a cell transplant (Tx, n=7 per diet) or sham surgery (sham, n=4 per diet) after 7 weeks of LFD or HFD feeding. In the second cohort, HFD-fed mice (+/−drug treatment) received either a transplant (n=8 per group) or sham surgery (n=8 per group) 1 week after administration of the antidiabetic drugs. LFD controls all received sham surgery.
(§3) Glucose tolerance tests (GTTs) were performed following a 6-hour morning fast and administration of glucose by oral gavage or intraperitoneal (i.p.) injection (2 glucose/kg BW, 30% solution; Vétoquinol™, Lavaltrie, QC). Glucose-stimulated human C-peptide secretion from engrafted cells was assessed following an overnight fast and an i.p. injection of glucose (2 g/kg). Insulin tolerance tests (ITTs) were performed following a 4-hour morning fast and administration of human synthetic insulin (0.7 IU/kg body weight; Novolin Ge™ Toronto, Novo Nordisk™, Mississaugua, Canada). […] Blood glucose levels were measured using a handheld glucometer (Lifescan™; Burnaby, Canada). Mouse hormone and lipid profiles were assessed in plasma using the following kits: leptin (Mouse Leptin ELISA, Crystal ChemInc.™, Downers Grove, Ill.), insulin (Ultrasensitive Mouse Insulin ELISA, Alpco Diagnostics™, Salem, N.H.), C-peptide (Mouse C-peptide ELISA, Alpco Diagnostics™), triglycerides (Serum Triglyceride kit, Sigma-Aldrich™), free fatty acids (NEFA-HR(2) kit, Wako Chemical™, Richmond, Va.) and cholesterol (Cholesterol E™ kit, Wako Chemical™). Hormone secretion from engrafted hESC-derived cells was assessed by measuring plasma human C-peptide (C-peptide ELISA, 80-CPTHU-E01.1; Alpco Diagnostics™) and human insulin and glucagon levels (K15160C-2; Meso Scale Discovery™, Gaithersburg, Md.). Hemoglobin A1c (HbA1c) levels were measured with a Siemens DCA 200 Vantage Analyzer™ (Siemens Healthcare Diagnostics™, Tarrytown, N.Y.) from whole blood collected from the saphenous vein with EDTA as an anticoagulant. […]

[3] = system: HFD-fed mice; test: Fasting blood glucose and oral glucose tolerance test in 60% fat diet mice given antidiabetic drug with or without cell transplant (Example 6); assay type: in vivo, mouse (SCID-beige); conditions: for glucose tolerance (oral glucose tolerance test): HFD-fed mice, cell therapy combined with the drug
Method: as §1, §2
All metabolic analyses were performed in conscious, restrained mice and blood samples were collected via the saphenous vein. BW and blood glucose levels were assessed regularly throughout each study following a 4-hr morning fast. For all other metabolic tests, blood was collected after fasting (time 0) and at the indicated time points following administration of various secretagogues.
as §3, with “g/kg).” for “g/kg). Insulin tolerance tests (ITTs) were performed following a 4-hour morning fast and administration of human synthetic insulin (0.7 IU/kg body weight; Novolin Ge™ Toronto, Novo Nordisk™, Mississaugua, Canada).”, “Md.).” for “Md.). Hemoglobin A1c (HbA1c) levels were measured with a Siemens DCA 200 Vantage Analyzer™ (Siemens Healthcare Diagnostics™, Tarrytown, N.Y.) from whole blood collected from the saphenous vein with EDTA as an anticoagulant.”

[4] = under the conditions tested; cited from earlier work
[5] = system: pancreatic regeneration; conditions: ductal ligation model; cited from earlier work
[6] = 12 weeks post-transplant, drug with the cell therapy

Compound	circulating leptin levels [1]	reduction of fasting mouse C-peptide levels [2]	fasting mouse C-peptide levels [2]	glucose tolerance (oral glucose tolerance test) ([3]; 12 weeks post-transplant)	short term effect [4]	other results
CN(CCOc1ccc(CC2SC(=O)NC2=O)cc1)c1ccccn1 (stereo not shown) [rosiglitazone]	no effect					
CN(C)C(=N)NC(=N)N.Cl [metformin, 1,1-dimethylbiguanide hydrochloride]	significantly reduced	not yet evident	significantly reduced	significantly improved		
N[C@@H](CC(=O)N1CCn2c(nnc2C(F)(F)F)C1)Cc1cc(F)c(F)cc1F [sitagliptin, sitagliptin phosphate monohydrate]	significantly reduced	not yet evident	significantly reduced	significantly improved		weight loss ([1]; cells transplanted in combination with the drug, compared with other groups): the most weight loss was observed; glycemic control during an oral glucose challenge compared with LFD controls [3, 6]: indistinguishable; peak glucose level at 15 minutes post-gavage compared with LFD controls [3, 6]: marginally higher; glucose tolerance ([3]; drug on its own, without cell transplant): mild reduction in glucose tolerance
exendin-4: anti-diabetic medicine examined earlier for short term effect (Bruin et al. 2013)					without significant effect	
insulin: anti-diabetic medicine examined earlier for short term effect (Bruin et al. 2013)					without significant effect	
C=CC[C@@H]1/C=C(\C)C[C@H](C)C[C@H](OC)[C@H]2O[C@@](O)(C(=O)C(=O)N3CCCC[C@H]3C(=O)O[C@H](/C(C)=C/[C@@H]3CC[C@@H](O)[C@H](OC)C3)[C@H](C)[C@@H](O)CC1=O)[C@H](C)C[C@@H]2OC [tacrolimus]						pancreatic regeneration [5]: block pancreatic regeneration
